In patent publication US5858371A, “Pharmaceutical composition for the control and treatment of anorectal and colonic diseases” (Panacea Biotech Limited, priority 1997, dated 1999):

How the values were obtained:
[1] = test system: croton-oil induced ear oedema; experiment: Croton oil ear test (topical; oedema); assay type: in vivo, mice; conditions: for Activity Ratio on Molar basis: Indomethacin = 1; for Effect on Oedema Development: apigenin glycoside 0.037, luteolin glycoside 0.27, indomethacin 1.26, hydrocortisone 0.41 μMol, means ± s.e.
Source text: The test used was described in published literature, where apigenin 7-glucoside was used as a reference sample.
Indomethacin and hydrocortisone were used as the reference drugs.

[2] = test system: Carrageenan-induced Mice Paw Oedema; experiment: Carrageenan-induced paw oedema, topical application; assay type: in vivo
Experimental: Carrageenan-induced Pedal Oedema Test:
Modification of Carrageenan-induced Mice Paw Oedema following Topical
Application of the Standardized Extract and Indomethacin.
The duration of action of topical preparation was determined by studying the effects of different concentrations of the drug on oedema over a period of 8 hr. As evident from the Table 3, the peak inhibition was observed after 3-4 hours of carrageenan injection beginning at 2 hr for the extract at lower concentrations (0.5-2.0%) and 1 hr. at 4% concentration.

[3] = test system: granulocyte infiltration (MPO activity); experiment: Granulocyte/leucocyte infiltration (MPO activity), croton oil ear; assay type: in vivo, mice; conditions: for Effect on granulocyte infiltration (MPO activity): apigenin glycoside 0.37, luteolin glycoside 0.27, indomethacin 1.26, hydrocortisone 0.41 μMol, one unit = 1 nMol/min. of tetraguaiacol at 25° C.; for leukocyte infiltration: measured as myeloperoxidase activity
Experimental: Effect on granulocyte infiltration (MPO activity).
One unit = 1 nMol/min. of tetraguaiacol formed at 25° C. p < 0.05
The inflammation appears to naturally suppress after 30 hours.

[4] = test system: Carrageenan-induced Pedal Oedema; experiment: Carrageenan-induced pedal oedema in rats, oral extract / i.p. indomethacin; assay type: in vivo; conditions: for Oedema + SEM (%): N=6
Source text: Carrageenan-induced oedema is a biphasic event, the early hypermia being due to the release of histamine and serotonin and the delayed oedema due to the release of bradykinin and prostaglandins.
Modification of Carrageenan-induced Pedal Oedema in Rats following oral
Administration of the extract and Intraperitoneal treatment with […]

[5] = test system: mast cell histamine secretion; conditions: cited from earlier work
cotton pellet granuloma = conditions: in vivo; cited from earlier work
neutrophil functions = conditions: cited from earlier work

O=c1cc(-c2ccc(O)cc2)oc2cc(O[C@@H]3O[C@H](CO)[C@@H](O)[C@H](O)[C@H]3O)cc(O)c12 [Apigenin-7-glucoside]
Activity Ratio on Molar basis [1]: 0.32

COc1ccc2c(c1)c(CC(=O)O)c(C)n2C(=O)c1ccc(Cl)cc1 [Indomethacin]
inhibition of carrageenan-induced paw oedema ([2]; Indomethacin line printed at dose 1.00, +60 m, N=6): 30.3% | inhibition of carrageenan-induced paw oedema ([2]; Indomethacin line printed at dose 1.00, +120 m, N=6): 28.0% | inhibition of carrageenan-induced paw oedema ([2]; Indomethacin line printed at dose 1.00, +180 m, N=6): 46.8% | inhibition of carrageenan-induced paw oedema ([2]; Indomethacin line printed at dose 1.00, +240 m, N=6): 21.2% | inhibition of carrageenan-induced paw oedema ([2]; Indomethacin line printed at dose 1.00, +360 m, N=6): 11.5% | inhibition of carrageenan-induced paw oedema ([2]; Indomethacin line printed at dose 1.00, +480 m, N=6): 13.9% | inhibition of carrageenan-induced paw oedema ([2]; Indomethacin line printed at dose 2.00, +60 m, N=6): 18.2% | inhibition of carrageenan-induced paw oedema ([2]; Indomethacin line printed at dose 2.00, +120 m, N=6): 24.0% | inhibition of carrageenan-induced paw oedema ([2]; Indomethacin line printed at dose 2.00, +180 m, N=6): 29.0% | inhibition of carrageenan-induced paw oedema ([2]; Indomethacin line printed at dose 2.00, +240 m, N=6): 21.2% | inhibition of carrageenan-induced paw oedema ([2]; Indomethacin line printed at dose 2.00, +360 m, N=6): 9.6% | inhibition of carrageenan-induced paw oedema ([2]; Indomethacin line printed at dose 2.00, +480 m, N=6): 4.6% | inhibition ([2]; indomethacin 2 percent concentration): 41.9% | inhibition of carrageenan-induced paw oedema ([2]; last line, no dose given, +60 m): 24.2% | inhibition of carrageenan-induced paw oedema ([2]; last line, no dose given, +120 m): 26.0% | inhibition of carrageenan-induced paw oedema ([2]; last line, no dose given, +180 m): 41.9% | inhibition of carrageenan-induced paw oedema ([2]; last line, no dose given, +240 m): 36.4% | inhibition of carrageenan-induced paw oedema ([2]; last line, no dose given, +360 m): 11.5% | inhibition of carrageenan-induced paw oedema ([2]; last line, no dose given, +480 m): 10.6% | Effect on granulocyte infiltration (MPO activity) ([3]; 6 hours after treatment): 0.0 ± 0.1 unit | Effect on granulocyte infiltration (MPO activity) ([3]; 18 hours after treatment): 10.0 ± 1.6 unit | Effect on granulocyte infiltration (MPO activity) ([3]; 30 hours after treatment): 6.8 ± 3.4 unit | Effect on Oedema Development ([1]; 6 hours after treatment): 0.0 ± 0.1 mg | duration of antiinflammatory activity ([1]; 18 hours after treatment): lose their antiinflammatory activity 18 hours after treatment | Effect on Oedema Development ([1]; 18 hours after treatment): 3.1 ± 0.4 mg | Effect on Oedema Development ([1]; 30 hours after treatment): 0.5 ± 0.1 mg | Oedema + SEM (%) ([4]; indomethacin 0.5 mg/Kg i.p., +30 min): 13.6 ± 4.0% | Oedema + SEM (%) ([4]; indomethacin 0.5 mg/Kg i.p., +60 min): 18.9 ± 4.0% | Oedema + SEM (%) ([4]; indomethacin 0.5 mg/Kg i.p., +120 min): 28.8 ± 4.2% | Oedema + SEM (%) ([4]; indomethacin 1.0 mg/Kg i.p., +30 min): 9.3 ± 2.3% | Oedema + SEM (%) ([4]; indomethacin 1.0 mg/Kg i.p., +60 min): 12.3 ± 2.2% | Oedema + SEM (%) ([4]; indomethacin 1.0 mg/Kg i.p., +120 min): 16.4 ± 1.6% | inhibition of oedema ([4]; indomethacin 1 mg/kg i.p.): 74% | Oedema + SEM (%) ([4]; indomethacin 2.0 mg/Kg i.p., +30 min): 8.2 ± 1.5% | Oedema + SEM (%) ([4]; indomethacin 2.0 mg/Kg i.p., +60 min): 12.8 ± 1.8%

O=c1cc(-c2ccc(O)c(O)c2)oc2cc(O)cc(O)c12 [luteolin]
leukocyte infiltration [3]: decrease leukocyte infiltration and luteolin maintained its effect even after 18 hours of treatment

C[C@]12CCC(=O)C=C1CC[C@@H]1[C@@H]2[C@@H](O)C[C@@]2(C)[C@H]1CC[C@]2(O)C(=O)CO [Hydrocortisone]
Effect on granulocyte infiltration (MPO activity) ([3]; 6 hours after treatment): 0.0 ± 0.2 unit | Effect on granulocyte infiltration (MPO activity) ([3]; 18 hours after treatment): 6.9 ± 2.1 unit | Effect on granulocyte infiltration (MPO activity) ([3]; 30 hours after treatment): 8.2 ± 2.4 unit | Effect on Oedema Development ([1]; 6 hours after treatment): 0.5 ± 0.2 mg | duration of antiinflammatory activity ([1]; 18 hours after treatment): maintain their effect to a certain extent | Effect on Oedema Development ([1]; 18 hours after treatment): 0.7 ± 0.1 mg | Effect on Oedema Development ([1]; 30 hours after treatment): 0.7 ± 0.1 mg | Activity Ratio on Molar basis [1]: 14.00

O=c1c(O)c(-c2ccc(O)c(O)c2)oc2cc(O)cc(O)c12 [Quercetin, quercetin]
mast cell histamine secretion [5]: inhibits mast cell histamine secretion | Activity Ratio on Molar basis [1]: 0.65 | exudative and proliferative phases of cotton pellet granuloma (cotton pellet granuloma): control significantly the exudative and the proliferative phases of the cotton pellet granuloma | neutrophil functions: release of lysosomal enzymes, oxygen consumption, generation of free radicals and chemotaxis (neutrophil functions): inhibits mast cell histamine secretion (Benett, J. P., Gomperts, B. D. and Wollenweber, E., Arzneim. Forsch., 31, 433, 1981), neutrophil functions such as release of lysosomal enzymes, oxygen consumption, generation of free radicals and chemotaxis

C[C@@H]1O[C@@H](OC[C@H]2O[C@@H](Oc3c(-c4ccc(O)c(O)c4)oc4cc(O)cc(O)c4c3=O)[C@H](O)[C@@H](O)[C@@H]2O)[C@H](O)[C@H](O)[C@H]1O [Rutin]
Activity Ratio on Molar basis [1]: 0.28

O=c1cc(-c2ccc(O)cc2)oc2cc(O)cc(O)c12 [Apigenin, apigenin]
leukocyte infiltration [3]: decrease leukocyte infiltration
